Measured values reported in US10265310B2, “6-membered cyclic amines or lactames substituted with urea and phenyl” (GRÜNENTHAL GMBH, priority 2016, dated 2019).

Key:
FPR2 = FPR2 (Homo sapiens (Human), UniProt P25090); assay: Agonistic activity (calcium FLIPR) in hFPR2-Aq-CHO cells; type: cell-based; settings: FLIPR Calcium 5 dye fluorescence, agonistic response
In short: (§1)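 CHO cells expressing hFPR1-Gα15 or hFPR2-Aq were plated 18 hours, then loaded with Calcium 5 dye (pH 7.4, probenecid) for 30 minutes at 37° C. Compounds (final 10 μM to 100 pM, 11 half-log points) were added on FLIPR, with fluorescence followed for 5 minutes. EC50 came from the rise over basal relative to no-compound wells.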

FPR1 = FPR1 (Homo sapiens (Human), UniProt P21462); assay: Agonistic activity (calcium FLIPR) in hFPR1-Gα15-CHO cells; type: cell-based; settings: FLIPR Calcium 5 dye fluorescence, agonistic response
In short: as §1

FPR2, sequence (P25090 whole entry): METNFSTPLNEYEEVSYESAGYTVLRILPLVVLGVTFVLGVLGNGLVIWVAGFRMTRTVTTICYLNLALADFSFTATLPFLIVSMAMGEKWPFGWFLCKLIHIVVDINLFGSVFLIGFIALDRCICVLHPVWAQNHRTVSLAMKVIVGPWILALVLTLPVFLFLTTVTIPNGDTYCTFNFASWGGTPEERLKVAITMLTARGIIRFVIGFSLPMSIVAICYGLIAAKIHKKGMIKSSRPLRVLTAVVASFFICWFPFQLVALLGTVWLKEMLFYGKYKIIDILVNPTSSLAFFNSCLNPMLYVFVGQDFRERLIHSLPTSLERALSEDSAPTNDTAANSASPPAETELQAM
FPR1, sequence (P21462 whole entry): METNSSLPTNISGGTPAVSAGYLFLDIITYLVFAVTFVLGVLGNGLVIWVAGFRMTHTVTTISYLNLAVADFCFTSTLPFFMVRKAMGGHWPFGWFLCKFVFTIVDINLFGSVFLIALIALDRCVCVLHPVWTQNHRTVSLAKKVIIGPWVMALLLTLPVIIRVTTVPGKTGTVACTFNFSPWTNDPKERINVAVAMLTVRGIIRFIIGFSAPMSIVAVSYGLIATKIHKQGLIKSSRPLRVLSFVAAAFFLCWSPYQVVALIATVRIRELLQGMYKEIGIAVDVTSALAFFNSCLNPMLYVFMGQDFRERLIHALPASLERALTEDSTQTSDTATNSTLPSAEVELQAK

Compound | EC50 (FPR2) | EC50 (FPR1)
O=C(Nc1ccc(Cl)cc1)NC1CN(C(=O)C2CC2)CCC1c1ccccc1 (single isomer, unassigned; ent1) [Example 83, trans-ent1-1-(4-chlorophenyl)-3-(1-(cyclopropanecarbonyl)-4-phenylpiperidin-3-yl)urea] | 1 to 1000 nM | 1 to 1000 nM
COc1ccc(C2CCN(C(=O)C3CC3)CC2NC(=O)Nc2ccc(Cl)cc2)c(F)c1 (single isomer, unassigned; ent1) [Example 86, trans-ent1-1-(4-chlorophenyl)-3-(1-(cyclopropanecarbonyl)-4-(2-fluoro-4-methoxyphenyl)piperidin-3-yl)urea] | < 1 nM | < 1 nM
O=C1CC(c2ccc(Cl)cc2)C(NC(=O)Nc2ccc(Cl)cc2)CN1 (single isomer, unassigned; ent1) [Example 91, trans-ent1-1-(4-chlorophenyl)-3-(4-(4-chlorophenyl)-6-oxopiperidin-3-yl)urea] | 1 to 1000 nM | 1 to 1000 nM
COc1cc(F)c(C2CCNCC2NC(=O)Nc2ccc(Cl)cc2)c(F)c1 (single isomer, unassigned; ent2) [Example 37, trans-ent2-1-(4-chlorophenyl)-3-(4-(2,6-difluoro-4-methoxyphenyl)piperidin-3-yl)urea] | 1 to 1000 nM | 1 to 1000 nM
COc1cc(F)c(C2CCN(C(=O)C3CC3)CC2NC(=O)Nc2ccc(Cl)cc2)c(F)c1 (single isomer, unassigned; ent2) [Example 40, trans-ent2-1-(4-chlorophenyl)-3-(1-(cyclopropanecarbonyl)-4-(2,6-difluoro-4-methoxyphenyl)piperidin-3-yl)urea] | 1 to 1000 nM | 1 to 1000 nM
COc1ccc(C2CC(=O)NCC2NC(=O)Nc2ccc(Cl)cc2)c(F)c1 (single isomer, unassigned; ent2) [Example 43, trans-ent2-1-(4-chlorophenyl)-3-(4-(2-fluoro-4-methoxyphenyl)-6-oxopiperidin-3-yl)urea] | 1 to 1000 nM | 1 to 1000 nM
COc1ccc(C2CCNCC2NC(=O)Nc2ccc(Cl)cc2)c(F)c1 (single isomer, unassigned; ent2) [Example 46, ent2-1-(4-chlorophenyl)-3-(4-(2-fluoro-4-methoxyphenyl)piperidin-3-yl)urea] | 1 to 1000 nM | 1 to 1000 nM
COc1cc(F)c(C2CC(=O)NCC2NC(=O)Nc2ccncc2)c(F)c1 (single isomer, unassigned; ent2) [Example 48, ent2-1-(4-(2,6-difluoro-4-methoxyphenyl)-6-oxopiperidin-3-yl)-3-(pyridin-4-yl)urea] | 1 to 1000 nM | 1 to 1000 nM
COc1cc(F)c(C2CC(=O)NCC2NC(=O)Nc2ccc(Cl)cc2)c(F)c1 (single isomer, unassigned; ent2) [Example 50, trans-ent2-1-(4-chlorophenyl)-3-(4-(2,6-difluoro-4-methoxyphenyl)-6-oxopiperidin-3-yl)urea] | < 1 nM | 1 to 1000 nM
COCCN1CC(NC(=O)Nc2ccc(Cl)cc2)C(c2ccc(OC)cc2F)CC1=O (single isomer, unassigned; ent2) [Example 60, trans-ent2-1-(4-Chlorophenyl)-3-[4-(2-fluoro-4-methoxy-phenyl)-1-(2-methoxy-ethyl)-6-oxo-piperidin-3-yl]-urea] | 1 to 1000 nM | 1 to 1000 nM
COc1ccc(C2CC(=O)N(CC(F)F)CC2NC(=O)Nc2ccc(Cl)cc2)c(F)c1 (single isomer, unassigned; ent2) [Example 62, trans-ent2-1-(4-Chlorophenyl)-3-[1-(2,2-difluoro-ethyl)-4-(2-fluoro-4-methoxy-phenyl)-6-oxo-piperidin-3-yl]-urea] | 1 to 1000 nM | 1 to 1000 nM
COCCN1CC(NC(=O)Nc2ccc(Cl)cc2)C(c2ccc(F)cc2F)CC1=O (single isomer, unassigned; ent2) [Example 64, trans-ent2-1-(4-Chlorophenyl)-3-[4-(2,4-difluoro-phenyl)-1-(2-methoxy-ethyl)-6-oxo-piperidin-3-yl]-urea] | 1 to 1000 nM | 1 to 1000 nM
O=C(Nc1ccc(Cl)cc1)NC1CN(CC(F)F)C(=O)CC1c1ccc(F)cc1F (single isomer, unassigned; ent2) [Example 66, trans-ent2-1-(4-Chlorophenyl)-3-[1-(2,2-difluoro-ethyl)-4-(2,4-difluoro-phenyl)-6-oxo-piperidin-3-yl]-urea] | 1 to 1000 nM | 1 to 1000 nM
O=C1CC(c2ccc(F)cc2F)C(NC(=O)Nc2ccc(Cl)cc2)CN1 (single isomer, unassigned; ent2) [Example 68, trans-ent2-1-(4-Chlorophenyl)-3-[4-(2,4-difluoro-phenyl)-6-oxo-piperidin-3-yl]-urea] | 1 to 1000 nM | 1 to 1000 nM
COc1ccc(C2CC(=O)NCC2NC(=O)Nc2ccc(Cl)cc2)cc1 (single isomer, unassigned; ent2) [Example 77, trans-ent2-1-(4-chlorophenyl)-3-(4-(4-methoxyphenyl)-6-oxopiperidin-3-yl)urea] | 1 to 1000 nM | 1 to 1000 nM
O=C(Nc1ccc(Cl)cc1)NC1CNCCC1c1ccccc1 (single isomer, unassigned; ent2) [Example 81, trans-ent2-1-(4-chlorophenyl)-3-(4-phenylpiperidin-3-yl)urea] | 1 to 1000 nM | 1 to 1000 nM
O=C(Nc1ccc(Cl)cc1)NC1CN(C(=O)C2CC2)CCC1c1ccccc1 (single isomer, unassigned; ent2) [Example 84, trans-ent2-1-(4-chlorophenyl)-3-(1-(cyclopropanecarbonyl)-4-phenylpiperidin-3-yl)urea] | 1 to 1000 nM | 1 to 1000 nM
COc1ccc([C@@H]2CC(=O)N(C)C[C@H]2NC(=O)Nc2ccc(Cl)cc2)cc1 (stereo in doubt) [Example 7, rac-trans-1-(4-chlorophenyl)-3-(4-(4-methoxyphenyl)-1-methyl-6-oxopiperidin-3-yl)urea] | < 1 nM | < 1 nM
COc1ccc([C@H]2CC(=O)N(C)C[C@@H]2NC(=O)Nc2ccc(Cl)cc2)cc1 (stereo in doubt) [Example 10, trans-ent1-(4-chlorophenyl)-3-(4-(4-methoxyphenyl)-1-methyl-6-oxopiperidin-3-yl)urea] | < 1 nM | < 1 nM
COc1ccc([C@@H]2CC(=O)N(C)C[C@H]2NC(=O)Nc2ccc(Cl)cc2)cc1 (stereo in doubt) [Example 11, trans-ent2-(4-chlorophenyl)-3-(4-(4-methoxyphenyl)-1-methyl-6-oxopiperidin-3-yl)urea] | 1 to 1000 nM | 1 to 1000 nM
ent1-1-(4-chlorophenyl)-3-(4-(2-fluoro-4-methoxyphenyl)piperidin-3-yl)urea [Example 45] | < 1 nM | 1 to 1000 nM
